IC50 data for two compounds are collected here from ChEMBL document CHEMBL1139945, “Synthesis and biological evaluation of an 123I-labeled bicyclic nucleoside analogue (BCNA) as potential SPECT tracer for VZV-tk reporter gene imaging” (Bioorg Med Chem Lett, 2007).

As a reminder, the IC50 is the midpoint of a concentration-inhibition curve. The low end stands for higher potency, the high end for lower potency.

Structures are written as SMILES.

The target in the assay is T1, Thymidine kinase (Varicella-zoster virus (strain Dumas) (HHV-3) (Human herpesvirus 3), UniProt P09250).
T1 sequence (P09250 whole entry): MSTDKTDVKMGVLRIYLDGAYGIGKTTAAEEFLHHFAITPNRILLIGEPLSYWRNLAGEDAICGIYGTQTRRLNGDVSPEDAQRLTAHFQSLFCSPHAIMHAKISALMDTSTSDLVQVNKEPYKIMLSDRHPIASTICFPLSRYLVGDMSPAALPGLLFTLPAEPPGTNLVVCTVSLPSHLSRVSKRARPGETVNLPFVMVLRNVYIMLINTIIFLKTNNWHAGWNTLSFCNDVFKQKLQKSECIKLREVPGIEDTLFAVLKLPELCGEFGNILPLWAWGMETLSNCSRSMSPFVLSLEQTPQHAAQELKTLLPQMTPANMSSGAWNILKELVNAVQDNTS
Kind of assay: Inhibition of VZV thymidine kinase. More on the design: species or system Human alphaherpesvirus 3.

On to `O=c1nc2oc(-c3ccc(I)c(O)c3)cc2cn1[C@H]1C[C@H](O)[C@@H](CO)O1`, for which the IC50 amounted to 4.2 µM. `O=c1nc2oc(-c3cccc(O)c3)cc2cn1[C@H]1C[C@H](O)[C@@H](CO)O1` registered an IC50 of 2.6 µM. Compared with the last compound, the IC50 is about 1.6-fold lower.
